In PubChem BioAssay AID328 (DTP/NCI, 2004):
Where “and” joins values, the source holds several entries; their conditions need not be identical. Equal values may be shown once. Toxic doses and inconclusive results are not listed.

Test system: BDF1 mice, P388 leukemia ip, median survival T/C
Test: NCI In Vivo Anticancer Drug Screen. Data for tumor model P388 Leukemia (intraperitoneal) in B6D2F1 (BDF1) mice
Details: endpoint: median survival time, higher = longer survival
Procedure: The antitumor activity of compounds was measured in mice bearing transplantable tumors. Survival or tumor size were measured and the results are expressed as the measurement made in the treated group (T) divided by the measurement made in the vehicle treated control group (C). The tumor model used in this assay is P388 Leukemia (intraperitoneal) in B6D2F1 (BDF1) mice

[1] = dose: 3.13 mg/kg/injection, schedule: Q01DX009 (ip), vehicle: saline
[2] = dose: 6.25 mg/kg/injection, schedule: Q01DX009 (ip), vehicle: saline
[3] = dose: 25.0 mg/kg/injection, schedule: Q01DX009 (ip), vehicle: Klucel (hydroxypropylcellulose) (HPC)
[4] = dose: 50.0 mg/kg/injection, schedule: Q01DX009 (ip), vehicle: Klucel (hydroxypropylcellulose) (HPC)
[5] = dose: 25.0 mg/kg/injection, schedule: Q04DX003 (ip), vehicle: saline
[6] = dose: 50.0 mg/kg/injection, schedule: Q01DX009 (ip), vehicle: saline with Tween-80
[7] = dose: 100.0 mg/kg/injection, schedule: Q01DX009 (ip), vehicle: saline with Tween-80
[8] = dose: 200.0 mg/kg/injection, schedule: Q01DX009 (ip), vehicle: saline with Tween-80

CC(=O)O[C@@H]1C[C@@]2(C)[C@@H]3CC=C4[C@@H](C[C@H](O)C(=O)C4(C)C)[C@]3(C)C(=O)C[C@]2(C)[C@H]1[C@@](C)(O)C(=O)/C=C/C(C)(C)OC(C)=O
T/C (dose: 12.5 mg/kg/injection, schedule: Q01DX010 (ip), vehicle: carboxymethylcellulose (CMC)): 109 % of control | T/C (dose: 25.0 mg/kg/injection, schedule: Q01DX010 (ip), vehicle: carboxymethylcellulose (CMC)): 122 % of control | T/C (dose: 50.0 mg/kg/injection, schedule: Q01DX010 (ip), vehicle: carboxymethylcellulose (CMC)): 95 % of control

Cl
T/C (dose: 0.62 mg/kg/injection, schedule: Q01DX009 (ip), vehicle: water): 100 % of control | T/C (dose: 1.25 mg/kg/injection, schedule: Q01DX009 (ip), vehicle: water): 90 % of control | T/C (dose: 2.5 mg/kg/injection, schedule: Q01DX009 (ip), vehicle: water): 104 % of control | T/C (dose: 5.0 mg/kg/injection, schedule: Q01DX009 (ip), vehicle: water): 95 % of control | T/C (dose: 10.0 mg/kg/injection, schedule: Q01DX009 (ip), vehicle: water): 100 % of control | T/C (dose: 20.0 mg/kg/injection, schedule: Q01DX009 (ip), vehicle: water): 100 % of control | T/C (dose: 25.0 mg/kg/injection, schedule: Q01DX009 (ip), vehicle: water): 90 % of control | T/C (dose: 50.0 mg/kg/injection, schedule: Q01DX009 (ip), vehicle: water): 104 % of control

COc1c(C)c2c(c(O)c1C/C=C(\C)CCC(=O)O)C(=O)OC2
T/C (dose: 25.0 mg/kg/injection, schedule: Q01DX010 (ip), vehicle: saline): 112 % of control and 100 % of control | T/C (dose: 50.0 mg/kg/injection, schedule: Q01DX010 (ip), vehicle: saline): 104 % of control and 118 % of control | T/C (dose: 100.0 mg/kg/injection, schedule: Q01DX010 (ip), vehicle: saline): 116 % of control and 100 % of control | T/C (dose: 100.0 mg/kg/injection, schedule: Q04DX002 (ip), vehicle: Klucel (hydroxypropylcellulose) (HPC)): 100 % of control | T/C (dose: 200.0 mg/kg/injection, schedule: Q01DX010 (ip), vehicle: saline): 100 % of control and 118 % of control | T/C (dose: 200.0 mg/kg/injection, schedule: Q04DX002 (ip), vehicle: Klucel (hydroxypropylcellulose) (HPC)): 100 % of control | T/C (dose: 400.0 mg/kg/injection, schedule: Q04DX002 (ip), vehicle: Klucel (hydroxypropylcellulose) (HPC)): 116 % of control

CC(=O)c1ccc[n+](Cc2c(Cl)cccc2Cl)c1
T/C [1]: 93 % of control | T/C [2]: 92 % of control | T/C (dose: 12.5 mg/kg/injection, schedule: Q01DX009 (ip), vehicle: saline): 92 % of control

CCO/C=C1\SC(=S)N(c2ccccc2OC)C1=O
T/C [3]: 100 % of control | T/C [4]: 112 % of control | T/C (dose: 88.0 mg/kg/injection, schedule: Q01DX009 (ip), vehicle: Klucel (hydroxypropylcellulose) (HPC)): 103 % of control | T/C (dose: 88.0 mg/kg/injection, schedule: Q01DX009 (ip), vehicle: saline with Tween-80): 122 % of control | T/C (dose: 100.0 mg/kg/injection, schedule: Q01DX009 (ip), vehicle: Klucel (hydroxypropylcellulose) (HPC)): 94 % of control | T/C (dose: 132.0 mg/kg/injection, schedule: Q01DX009 (ip), vehicle: Klucel (hydroxypropylcellulose) (HPC)): 103 % of control | T/C (dose: 200.0 mg/kg/injection, schedule: Q01DX009 (ip), vehicle: Klucel (hydroxypropylcellulose) (HPC)): 94 % of control and 123 % of control | T/C (dose: 300.0 mg/kg/injection, schedule: Q01DX009 (ip), vehicle: Klucel (hydroxypropylcellulose) (HPC)): 112 % of control

Cc1ccc(N2CCN(CCCN3CCN(c4ccc(Cl)cc4)CC3)CC2)cc1
T/C (dose: 50.0 mg/kg/injection, schedule: Q04DX003 (ip), vehicle: saline sonified): 100 % of control | T/C (dose: 100.0 mg/kg/injection, schedule: Q04DX003 (ip), vehicle: saline sonified): 95 % of control | T/C (dose: 200.0 mg/kg/injection, schedule: Q04DX003 (ip), vehicle: saline sonified): 95 % of control

O=CNC(Cc1ccc(N(CCCl)CCCl)cc1)C(=O)O (stereo not given)
T/C (dose: 1.1 mg/kg/injection, schedule: Q01DX009 (ip), vehicle: Klucel (hydroxypropylcellulose) (HPC)): 107 % of control | T/C (dose: 1.46 mg/kg/injection, schedule: Q04DX003 (ip), vehicle: saline): 104 % of control | T/C (dose: 1.56 mg/kg/injection, schedule: Q01DX009 (ip), vehicle: saline): 118 % of control | T/C (dose: 1.7 mg/kg/injection, schedule: Q01DX009 (ip), vehicle: Klucel (hydroxypropylcellulose) (HPC)): 107 % of control | T/C (dose: 2.2 mg/kg/injection, schedule: Q04DX003 (ip), vehicle: saline): 100 % of control | T/C [1]: 104 % of control | T/C (dose: 3.3 mg/kg/injection, schedule: Q04DX003 (ip), vehicle: saline): 118 % of control | T/C (dose: 5.0 mg/kg/injection, schedule: Q04DX003 (ip), vehicle: saline): 122 % of control | T/C (dose: 6.25 mg/kg/injection, schedule: Q01DX009 (ip), vehicle: Klucel (hydroxypropylcellulose) (HPC)): 175 % of control | T/C [2]: 181 % of control | T/C (dose: 8.3 mg/kg/injection, schedule: Q04DX003 (ip), vehicle: Klucel (hydroxypropylcellulose) (HPC)): 109 % of control | T/C (dose: 11.0 mg/kg/injection, schedule: Q04DX003 (ip), vehicle: saline): 160 % of control | T/C (dose: 12.0 mg/kg/injection, schedule: Q04DX003 (ip), vehicle: Klucel (hydroxypropylcellulose) (HPC)): 118 % of control | T/C (dose: 12.5 mg/kg/injection, schedule: Q01DX009 (ip), vehicle: Klucel (hydroxypropylcellulose) (HPC)): 185 % of control | T/C (dose: 16.0 mg/kg/injection, schedule: Q01DX009 (ip), vehicle: Klucel (hydroxypropylcellulose) (HPC)): 160 % of control and 200 % of control | T/C (dose: 16.5 mg/kg/injection, schedule: Q04DX003 (ip), vehicle: saline): 163 % of control and 169 % of control | T/C (dose: 23.3 mg/kg/injection, schedule: Q01DX009 (ip), vehicle: Klucel (hydroxypropylcellulose) (HPC)): 170 % of control | T/C [3]: 230 % of control and 220 % of control | T/C [5]: 172 % of control and 200 % of control | T/C (dose: 29.0 mg/kg/injection, schedule: Q04DX003 (ip), vehicle: Klucel (hydroxypropylcellulose) (HPC)): 115 % of control | T/C (dose: 35.0 mg/kg/injection, schedule: Q01DX009 (ip), vehicle: Klucel (hydroxypropylcellulose) (HPC)): 245 % of control and 195 % of control | T/C (dose: 37.5 mg/kg/injection, schedule: Q04DX003 (ip), vehicle: saline): 234 % of control and 186 % of control | T/C (dose: 40.0 mg/kg/injection, schedule: Q04DX003 (ip), vehicle: Klucel (hydroxypropylcellulose) (HPC)): 204 % of control | T/C (dose: 44.0 mg/kg/injection, schedule: Q04DX003 (ip), vehicle: Klucel (hydroxypropylcellulose) (HPC)): 240 % of control | T/C [4]: 272 % of control | T/C (dose: 60.0 mg/kg/injection, schedule: Q04DX003 (ip), vehicle: Klucel (hydroxypropylcellulose) (HPC)): 272 % of control | T/C (dose: 66.0 mg/kg/injection, schedule: Q04DX003 (ip), vehicle: Klucel (hydroxypropylcellulose) (HPC)): 280 % of control | T/C (dose: 100.0 mg/kg/injection, schedule: Q04DX003 (ip), vehicle: Klucel (hydroxypropylcellulose) (HPC)): 175 % of control | T/C (dose: 100.0 mg/kg/injection, schedule: Q04DX003 (ip), vehicle: saline with Tween-80): 95 % of control | T/C (dose: 132.0 mg/kg/injection, schedule: Q04DX003 (ip), vehicle: Klucel (hydroxypropylcellulose) (HPC)): 250 % of control | T/C (dose: 200.0 mg/kg/injection, schedule: Q04DX003 (ip), vehicle: Klucel (hydroxypropylcellulose) (HPC)): 185 % of control

CC(C)CC(NC(=O)CN)C(=O)O (stereo not given)
T/C (dose: 25.0 mg/kg/injection, schedule: Q01DX009 (ip), vehicle: saline with Tween-80): 98 % of control | T/C [6]: 99 % of control | T/C [7]: 102 % of control | T/C [8]: 111 % of control | T/C (dose: 200.0 mg/kg/injection, schedule: Q01DX009 (ip), vehicle: saline): 118 % of control | T/C (dose: 400.0 mg/kg/injection, schedule: Q01DX009 (ip), vehicle: saline): 96 % of control

CNc1cccnc1/C=N/NC(N)=S
T/C [6]: 194 % of control | T/C [7]: 181 % of control

CN(C)c1oc2ccc3ccccc3c2c(=O)c1C#N
T/C [6]: 95 % of control | T/C [7]: 97 % of control | T/C [8]: 92 % of control

CCn1cnc2c(SC)ncnc21
T/C (dose: 18.75 mg/kg/injection, schedule: Q01DX009 (ip), vehicle: saline): 109 % of control | T/C [5]: 86 % of control | T/C (dose: 37.5 mg/kg/injection, schedule: Q01DX009 (ip), vehicle: saline): 100 % of control | T/C (dose: 50.0 mg/kg/injection, schedule: Q04DX003 (ip), vehicle: saline): 104 % of control | T/C (dose: 75.0 mg/kg/injection, schedule: Q01DX009 (ip), vehicle: saline): 104 % of control | T/C (dose: 75.0 mg/kg/injection, schedule: Q04DX003 (ip), vehicle: Klucel (hydroxypropylcellulose) (HPC)): 95 % of control
